For one test, the species on record is Homo sapiens. Nature of the test: Selectivity index, ratio of IC50 for wild type EGFR (unknown origin) to IC50 for Protein cereblon/Epidermal growth factor receptor L858R/T790M mutant.
In test [1] the target is Epidermal growth factor receptor (Homo sapiens, UniProt P00533, L858R/T790M). Description: Inhibition of EGFR L858R/T790M mutant (unknown origin) incubated for 35 mins by HTRF KinEASE-TK assay. On the technique in general: Time-resolved FRET reads energy transfer from a long-lived donor to a nearby acceptor.
Another test has as its system A549. Nature of the test: Anti-proliferative activity against human A549 cells assessed as reduction in cell proliferation incubated for 72 hrs by MTT assay. In kind it is functional, cell-based. Particulars: A549, 72 h.
Another test concerns NCI-H1975. Description: Anti-proliferative activity against human NCI-H1975 cells assessed as reduction in cell proliferation incubated for 72 hrs by MTT assay. In kind it is functional, cell-based. Particulars: NCI-H1975, 72 h. Background: Tetrazolium dyes change colour on reduction, which living cells bring about.
Test [2] concerns the target Epidermal growth factor receptor (Homo sapiens, UniProt P00533). Description: Inhibition of wild type EGFR (unknown origin) incubated for 10 mins by HTRF KinEASE-TK assay.
The next test concerns PC-9. Description: Anti-proliferative activity against human PC-9 cells assessed as reduction in cell proliferation incubated for 72 hrs by MTT assay. It counts as functional, cell-based. Conditions: PC-9, 72 h.
In test [3] the test system is Protein cereblon/Epidermal growth factor receptor (Homo sapiens), P00533+Q96SW2 [L858R,T790M]. Description: Protac activity at CRBN/EGFR L858R/T790M mutant in human NCI-H1975 cells assessed as L858R/T790M mutant degradation at 3 uM incubated for 48 hrs by Western blot analysis. It counts as cell-based. For orientation: In western blotting, separated proteins are transferred to a membrane and probed.

As a reminder, the pIC50 is the IC50 on a negative log10 scale, so that one unit is a factor of ten.

The structures appear in SMILES notation. pIC50: −log10 of the molar value. Active and inactive are the calls of the source. The rule behind the calls is not given here.

Regarding `C=CC(=O)Nc1cccc(Nc2nc(Nc3ccc(N4CCN(CC(=O)NCCNc5cccc6c5CN(C5CCC(=O)NC5=O)C6=O)CC4)cc3OC)ncc2C(F)(F)F)c1` (configuration not stated), the Ratio IC50 in the test listed under Homo sapiens is 2.5. The pIC50 was 6.02 in test [1]; 4.48 in the test on A549; 5.08 with NCI-H1975; 5.62 in test [2]; 5.31 in the test with PC-9.
`C=CC(=O)Nc1cccc(Nc2nc(Nc3ccc(N4CCN(CC(=O)NCCNc5ccc6c(c5)C(=O)N(C5CCC(=O)NC5=O)C6=O)CC4)cc3OC)ncc2C(F)(F)F)c1` (configuration not stated): the pIC50 in the test with A549 is less than 4.00; in the test with NCI-H1975 it was 5.33; in the test on PC-9 it was 5.45.
On to `C=CC(=O)Nc1cccc(Nc2nc(Nc3ccc(N4CCN(C(=O)CCCC(=O)Nc5cccc6c5C(=O)N(C5CCC(=O)NC5=O)C6=O)CC4)cc3OC)ncc2C(F)(F)F)c1` (configuration not stated), for which the Ratio IC50 in the test filed under Homo sapiens is 98. Moreover, the pIC50 in test [1] was 7.48; in the test on A549 it was less than 4.00; with NCI-H1975 it was 6.02; in test [2], 5.49; in the test on PC-9, 5.87. Besides, in test [3], the outcome was Active.
Regarding `C=CC(=O)Nc1cccc(Nc2nc(Nc3ccc(N4CCN(C(=O)CCCCCCCC(=O)Nc5cccc6c5C(=O)N(C5CCC(=O)NC5=O)C6=O)CC4)cc3OC)ncc2C(F)(F)F)c1` (configuration not stated), the pIC50 in the test on A549 is less than 4.00; in the test on NCI-H1975, 5.82; with PC-9, 5.27.
The corresponding values for `C=CC(=O)Nc1cccc(Nc2nc(Nc3ccc(N4CCN(C(=O)CCCCCCC(=O)Nc5cccc6c5C(=O)N(C5CCC(=O)NC5=O)C6=O)CC4)cc3OC)ncc2C(F)(F)F)c1` (configuration not stated) are less than 4.00, 5.30 and 5.59.
The corresponding values for `C=CC(=O)Nc1cccc(Nc2nc(Nc3ccc(N4CCN(CC(=O)NCCOc5cccc6c5C(=O)N(C5CCC(=O)NC5=O)C6=O)CC4)cc3OC)ncc2C(F)(F)F)c1` (configuration not stated) are less than 4.00, 5.03 and 5.13.
The corresponding values for `C=CC(=O)Nc1cccc(Nc2nc(Nc3ccc(N4CCN(CC(=O)NCCCCCNC(=O)CNc5cccc6c5C(=O)N(C5CCC(=O)NC5=O)C6=O)CC4)cc3OC)ncc2C(F)(F)F)c1` (configuration not stated) are less than 4.00, 4.89 and 4.84.
With `C=CC(=O)Nc1cccc(Nc2nc(Nc3ccc(N4CCN(CC(=O)NCCCNC(=O)CNc5cccc6c5C(=O)N(C5CCC(=O)NC5=O)C6=O)CC4)cc3OC)ncc2C(F)(F)F)c1` (configuration not stated), the pIC50 with A549 was less than 4.00; in the test with NCI-H1975, 5.13; with PC-9 it was 5.12.
For the compound `C=CC(=O)Nc1cccc(Nc2nc(Nc3ccc(N4CCN(CC(=O)NCCNC(=O)CNc5cccc6c5C(=O)N(C5CCC(=O)NC5=O)C6=O)CC4)cc3OC)ncc2C(F)(F)F)c1` (configuration not stated), the pIC50 was less than 4.00 in the test on A549, 5.05 in the test on NCI-H1975 and 4.87 in the test with PC-9.
For `C=CC(=O)Nc1cccc(Nc2nc(Nc3ccc(N4CCN(CC(=O)NCCCCNC(=O)CNc5cccc6c5C(=O)N(C5CCC(=O)NC5=O)C6=O)CC4)cc3OC)ncc2C(F)(F)F)c1` (configuration not stated) the same measures were less than 4.00, 4.93 and 4.88.
For `C=CC(=O)Nc1cccc(Nc2nc(Nc3ccc(N4CCN(C(=O)CCCCCCCCCCC(=O)Nc5cccc6c5C(=O)N(C5CCC(=O)NC5=O)C6=O)CC4)cc3OC)ncc2C(F)(F)F)c1` (configuration not stated) the same measures were less than 4.00, 5.07 and 5.06.
As to `C=CC(=O)Nc1cccc(Nc2nc(Nc3ccc(N4CCN(CC(=O)NCCNc5cccc6c5C(=O)N(C5CCC(=O)N(C)C5=O)C6=O)CC4)cc3OC)ncc2C(F)(F)F)c1` (configuration not stated), in the test filed under Homo sapiens, the Ratio IC50 was found to be 11. Moreover, the pIC50 is 6.87 in test [1]; less than 4.00 in the test on A549; 5.33 in the test on NCI-H1975; 5.85 in test [2]; 5.72 in the test on PC-9.
`C=CC(=O)Nc1cccc(Nc2nc(Nc3ccc(N4CCN(C(=O)CCCCCCCCCCCCC(=O)Nc5cccc6c5C(=O)N(C5CCC(=O)NC5=O)C6=O)CC4)cc3OC)ncc2C(F)(F)F)c1` (configuration not stated): the figures for the pIC50 in the test with A549, in the test with NCI-H1975 and with PC-9 were less than 4.00, 4.21 and 4.33, respectively.
`C=CC(=O)Nc1cccc(Nc2nc(Nc3ccc(N4CCN(C(=O)CCCCCC(=O)Nc5cccc6c5C(=O)N(C5CCC(=O)NC5=O)C6=O)CC4)cc3OC)ncc2C(F)(F)F)c1` (configuration not stated): in the test listed under Homo sapiens, the Ratio IC50 worked out at 32. Further, the pIC50 in test [1] is 7.69; with A549, 4.53; in the test with NCI-H1975 it was 6.23; in test [2] it was 6.19; in the test on PC-9 it was 6.05. Moreover, the result in test [3] was Active.
For `C=CC(=O)Nc1cccc(Nc2nc(Nc3ccc(N4CCN(CCOCCNc5cccc6c5C(=O)N(C5CCC(=O)NC5=O)C6=O)CC4)cc3OC)ncc2C(F)(F)F)c1` (configuration not stated), the Ratio IC50 in the test listed under Homo sapiens was determined as 15. In addition, the pIC50 in test [1] is 7.62; with A549, 4.43; in the test with NCI-H1975, 6.66; in test [2], 6.44; with PC-9 it was 6.30. For the same compound, the result in test [3] was Active.
As for `C=CC(=O)Nc1cccc(Nc2nc(Nc3ccc(N4CCN(C(=O)CCCCCCCCCC(=O)Nc5cccc6c5C(=O)N(C5CCC(=O)NC5=O)C6=O)CC4)cc3OC)ncc2C(F)(F)F)c1` (configuration not stated), the pIC50 in the test with A549 is less than 4.00; with NCI-H1975, 5.55; in the test on PC-9, 5.43.
As for `C=CC(=O)Nc1cccc(Nc2nc(Nc3ccc(N4CCN(C(=O)CCCCCCCCCCCC(=O)Nc5cccc6c5C(=O)N(C5CCC(=O)NC5=O)C6=O)CC4)cc3OC)ncc2C(F)(F)F)c1` (configuration not stated), the pIC50 with A549 was less than 4.00; with NCI-H1975, 4.77; in the test on PC-9, 4.74.
The corresponding values for `C=CC(=O)Nc1cccc(Nc2nc(Nc3ccc(N4CCN(CC(=O)NCCCCCCNc5cccc6c5C(=O)N(C5CCC(=O)NC5=O)C6=O)CC4)cc3OC)ncc2C(F)(F)F)c1` (configuration not stated) are less than 4.00, 5.38 and 5.48.
For `C=CC(=O)Nc1cccc(Nc2nc(Nc3ccc(N4CCN(CC(=O)NCCCCCNc5cccc6c5C(=O)N(C5CCC(=O)NC5=O)C6=O)CC4)cc3OC)ncc2C(F)(F)F)c1` (configuration not stated) the same measures were less than 4.00, 6.28 and 5.46.
The corresponding values for `C=CC(=O)Nc1cccc(Nc2nc(Nc3ccc(N4CCN(C(=O)CCCCC(=O)Nc5cccc6c5C(=O)N(C5CCC(=O)NC5=O)C6=O)CC4)cc3OC)ncc2C(F)(F)F)c1` (configuration not stated) are less than 4.00, 5.81 and 5.34.
`C=CC(=O)Nc1cccc(Nc2nc(Nc3ccc(N4CCN(C(=O)CCCCNc5cccc6c5C(=O)N(C5CCC(=O)NC5=O)C6=O)CC4)cc3OC)ncc2C(F)(F)F)c1` (configuration not stated): in the test listed under Homo sapiens, the Ratio IC50 was 5. Moreover, the pIC50 was 6.92 in test [1]; less than 4.00 with A549; 5.96 with NCI-H1975; 6.21 in test [2]; 5.17 in the test on PC-9. In addition, in test [3], the result was Active.
Take `C=CC(=O)Nc1cccc(Nc2nc(Nc3ccc(N4CCN(CC(=O)NCCCCCCNC(=O)CNc5cccc6c5C(=O)N(C5CCC(=O)NC5=O)C6=O)CC4)cc3OC)ncc2C(F)(F)F)c1` (configuration not stated): the pIC50 in the test on A549 is less than 4.00; in the test on NCI-H1975 it was 4.77; in the test with PC-9 it was 5.18.
The corresponding values for `C=CC(=O)Nc1cccc(Nc2nc(Nc3ccc(N4CCN(C(=O)CCCCCCCCC(=O)Nc5cccc6c5C(=O)N(C5CCC(=O)NC5=O)C6=O)CC4)cc3OC)ncc2C(F)(F)F)c1` (configuration not stated) are less than 4.00, 4.77 and 4.57.
As for `C=CC(=O)Nc1cccc(Nc2nc(Nc3ccc(N4CCN(CC(=O)NCCCNc5cccc6c5C(=O)N(C5CCC(=O)NC5=O)C6=O)CC4)cc3OC)ncc2C(F)(F)F)c1` (configuration not stated), the results for the pIC50 in the test on A549, in the test on NCI-H1975 and in the test on PC-9 were less than 4.00, 5.24 and 5.59, respectively.
The corresponding values for `C=CC(=O)Nc1cccc(Nc2nc(Nc3ccc(N4CCN(C(C)=O)CC4)cc3OC)ncc2C(F)(F)F)c1` [ROCILETINIB] are 5.12, 6.89 and 6.57.

The values are drawn from ChEMBL document CHEMBL5113409, “Design and synthesis of proteolysis targeting chimeras (PROTACs) as an EGFR degrader based on CO-1686” (Eur J Med Chem, 2022).
